These results are taken from US6342602B1, “Aryl or heteroaryl amides of tetrahydronaphthalene, chroman, thichroman and 1,2,3,4-tetrahydroquinolinecarboxlic acids, having an electron withdrawing substituent in the aromatic or heteroaromatic moiety, having retinoid-like biological activity” (Allergan Sales, Inc., priority 1995, dated 2002).

Molecules are shown by their SMILES.

One assay has as its system AML-193. The assay can be described thus: Cancer cell line assay, incorporation of 3H-thymidine. In kind it is cell-based. The note with it: 10^−11 to 10^−6 molar concentration range, 96 hours. The protocol: (§1) All trans-Retinoic acid (t-RA) (Sigma Chemicals Co., St. Louis, M.) was stored at −70° C. Prior to each experimet the compound was dissolved in 100% ethanol at 1 mM and diluted in culture medium immediately before use. All experiments were performed in subdued light. Controls were assayed using the same concentration of ethanol as present in the experimental plates and this concentration of diluent had no effect in either assay.
AML-193 was established from the blast cells classified as M5 Acute Monocyte Leukemia. The growth factor, […] (GM-CSF) was required to establish this cell line and growth factors are necessary for its continuous proliferation in chemically defined medium. AML-193 cells were grown and maintained in Iscove's modified Dulbeccous medium supplemented with 10% fetal bovine serum, glutamine and antibiotics with 5 μg/ml insulin (Sigma Chemical Co.) and 2 ng/ml rh GM-CSF (R and D Systems). The cells were diluted to a concentration of 3×10^5/ml twice a week.
ME-180 wells, harvested by trypsinization were plated in a 96 well flat bottom microtiter plate (Costar) at a density of 2,000 cells/well. The cultures were treated as described above for RPMI 8226 with the following exceptions. After incubation with thymidine the supernatant was carefully removed, and the cells were washed with a 0.5 mM solution of thymidine in phosphate buffered saline. ME180 cells were briefly treated with 50 μl of 2.5% trypsin to dislodge the cells from the plate. AML-193 cells were plated in a 96 well round bottom microtiter plate (Costar) at a density of 1,000 cells/well. To appropriate wells, retinoid test compounds were added at the final concentrations indicated for a final volume of 150 μl/well. The plates were incubated for 96 hours at 37° C. in a humidified atmosphere of 5% CO2 in air. Subsequently, 1 μCi of [5′-^3H]-thymidine (Amersham, U.K., 43 Ci/mmol specific activity) in 25 μl culture medium was added to each well and the cells were incubated for an additional 6 hours.
(§2) All cells lines were then processed as follows: the cellular DNA was precipitated with […] trichloroacetic acid onto glass fiber filter mats using a SKATRON multi-well cell harvester (Skatron Instruments, Sterling Va.). Radioactivity incorporated into DNA, as a direct measurement of cell growth, was measured by liquid scintillation counting. The numbers represent the mean disintegrations per minute of incorporated thymidine from triplicate wells±SEM.

In a further assay the test system is RPMI 8226. Described as above. In kind it is cell-based, human. Conditions: 10^−11 to 10^−6 molar concentration range, 96 hours. As for the experimental part: as §1
All cell lines, RPMI 8226, ME-180 and AML-193 were obtained from the American Type Culture Collection (ATCC, Rockville, Md.). RPMI 8226 is a human hematopoietic cell line obtained from the peripheral blood of a patient with multiple myeloma. The cells resemble the lymphoblastoid cells of other human lymphocyte cell lines and secrete […] light chains of immunoglobulin. RPMI-8226 cells are grown in RPMI medium (Gibco) supplemented with 10% fetal bovine serum, glutamine and antibiotics. The cells were maintained as suspension cultures grown at 37° C. in a humidified atmosphere of 5% CO2 in air. The cells were diluted to a concentration of 1×10^5/ml twice a week.
The method used for determination of the incorporation of radiolabeled thymidine was adapted from the procedure described by Shrivastav et al. RPMI-8226 cells were plated in a 96 well round bottom microtiter plate (Costar) at a density of 1,000 cells/well. To appropriate wells, retinoid test compounds were added at the final concentrations indicated for a final volume of 150 μl/well. The plates were incubated for 96 hours at 37° C. in a humidified atmosphere of 5% CO2 in air. Subsequently, 1 μCi of (5′-^3H]-thymidine (Amersham, U.K. 43 Ci/mmol specific activity) in 25 μl culture medium was added to each well and the cells were incubated for an additional 6 hours. The cultures were further processed as described below.
as §2

As for `CC1(C)CCC(C)(C)c2c(Br)cc(C(=O)Nc3ccc(C(=O)O)c(F)c3)cc21` [Compound 6], the “proliferation of the tumor cell line (incorporation of radioactive labeled thymidine)” value (from here on “proliferation of the tumor cell line”) in the assay on AML-193 and in the assay with RPMI 8226 was “significant decrease in the proliferation” in each case.
As to `CC1(C)CCC(C)(C)c2cc(C(=O)Nc3ccc(C(=O)O)c(F)c3)c(O)cc21` [Compound 8], the “proliferation of the tumor cell line” value with AML-193 and in the assay with RPMI 8226 was “significant decrease in the proliferation” in each case.
Consider `CC1(C)CC(C)(C)c2cc(C(=O)Nc3ccc(C(=O)O)c(F)c3)cc(Br)c2O1` [Compound 12], for which the “proliferation of the tumor cell line” value in the assay on AML-193 and with RPMI 8226 was “significant decrease in the proliferation” throughout.
For the compound `CC1(C)CC(C)(C)c2cc(C(=O)Nc3ccc(C(=O)O)c(F)c3)cc(C(F)(F)F)c2O1` [Compound 14], the “proliferation of the tumor cell line” value with AML-193 and with RPMI 8226 was “significant decrease in the proliferation” in each case.
Turning to `CC1(C)CC(C)(C)c2cc(C(=O)Nc3ccc(C(=O)O)c(F)c3)cc(I)c2O1` [Compound 20], the “proliferation of the tumor cell line” value in the assay on AML-193 and in the assay on RPMI 8226 was “significant decrease in the proliferation” each time.
